Measurements taken from patent US20060286032A1, “A radiosotope-chitosan complex for treatment of prostate cancer” (priority 2003, published 2006).
Marks after values point to notes of the source that are not given here.

Columns and labels:
[1] = Autoradiography, complex solution versus ^166Ho(NO3)3.5H2O solution not containing chitosan, injected into the prostate gland; format: in vivo, rats; details: for Radioactive concentration, Administration site / Radioactive concentration, End region of femur / Radioactive concentration, Liver / Radioactive concentration, Spine / Radioactive concentration, Spleen / Radioactive concentration, Kidney: 25 μl (about 100 μCi); for Radioactivity retained in the administration site, the prostate gland: 24 hrs after being administered
Method: To investigate advantages of the ^166Ho-chitosan complex, autoradiography was carried out for a group administered with the complex solution and a control group administered with a ^166Ho(NO3)3.5H2O solution not containing chitosan. In the complex solution administration group, 25 μl of the complex solution was administered, which was equal to about 100 μCi. The control group was administered with a ^166Ho(NO3)3.5H2O solution not containing chitosan with the same dosage and radioactive concentration as in the complex solution administration group. This test was carried out according to the same method as in Experimental Example 1, and each test drug was administered to the prostate gland. After 0.5, 2, 6 and 24 hrs, rats were sacrificed and evaluated by autoradiography. The measured radioactive concentrations (% ID/g) in various organs after injection of the complex solution and the ^166Ho(NO3)3.5H2O solution are given in Table 2, below.

[2] = Histopathological examination of organs of rats of the orthotopic model (hematoxylin and eosin); format: in vivo, noble rats; details: last day of the test
Description: From all rats tested in Experimental Example 7, which were sacrificed on the last day of the test, the heart, lung, liver, kidney, spleen, testes, epididymis, seminal vesicle, bladder, rectum and tumor tissues were excised, embedded in paraffin according to general tissue processing, and sectioned into a thickness of 3 μm. The tissue sections were subjected to double staining with hematoxylin and eosin and histopathologically examined.

[3] = system: AIT carcinoma (androgen-independent carcinoma cell line); assay: Antitumor effect in AIT subcutaneous tumor model; format: in vivo, noble rats; details: non-radioactive complex group; for Tumor growth inhibition rate: four weeks, tumor weight vs control
Method: To evaluate the effect of the complex on hormone-independent prostate cancer, an AIT carcinoma (androgen-independent carcinoma cell line) was transplanted into noble rats, and the antitumor effect of the complex was examined.
An androgen-independent, prostate carcinoma cell line, AIT, which is derived from noble rats, was cultured in 10% FBS-containing DMEM at 37° under 5% CO2. The cultured carcinoma cells were suspended in sterile physiological saline at a density of 4×10^6 cells/ml, and 2×10^6 cells were subcutaneously transplanted into the lateral abdomen of male 5-week noble rats. When the long axis of the tumor was about 1 cm long (in this test, 14 days after transplantation), the rats were grouped according to the tumor mass. The kit prepared in Example 2 was used as a test drug, and was administered at the same dose as in Experimental Example 5, that is, 0.2 ml. The rats were divided into four groups: a control group (no treatment); two administration groups administered with the complex solution at 10 mCi and 20 mCi per 1 cm^3 tumor; and another administration group administered with a non-radioactive complex solution (Holmium-165 (^165Ho)-chitosan complex solution). Four weeks after administration with the complex solution, tumors were excised from the rats, and tumor growth inhibition rates were measured by weighing the tumors.

[4] = system: AIT prostate carcinoma cells; assay: Antitumor effect in orthotopic tumor model, AIT transplanted into the prostate gland; format: in vivo, noble rats; details: non-radioactive complex group
Method: In addition to the subcutaneous tumor model tested in Experimental Example 6, the antitumor effect and side effects of the complex solution was examined in an orthotopic tumor model where AIT prostate carcinoma cells had been directly transplanted into the prostate gland. AIT cells were cultured in 10% FBS-containing DMEM at 37° under 5% CO2. The cultured carcinoma cells were suspended in sterile physiological saline at a density of 2×10^6 cells/0.05 ml. After noble rats were anesthetized with fentanyl and the abdomen was opened, 2×10^6 cells per rat were transplanted into the prostate gland of the rats. Seven days after carcinoma transplantation, the rats were randomly allocated. The kit prepared in Example 2 was used as a test drug, and 0.05 ml of the kit was administered. The rats were divided into four groups: a control group (no treatment); two administration groups administered with 0.5 mCi and 1.0 mCi of the complex solution; and another administration group administered with a non-radioactive complex solution (Holmium-165 (^165Ho)-chitosan complex solution). Two and four weeks after administration of the complex solution, the rats were sacrificed, and tumors were excised from the rats and weighed.

[5] = system: DU-145 carcinoma cell line (hormone-independent prostate carcinoma cell line); assay: Antitumor effect in DU-145 subcutaneous tumor model, intratumoral injection; format: in vivo, nude mice; details: for Tumor volume after injection / Tumor growth inhibition rate: non-radioactive complex group; for Tumor volume after injection: 0.2 ml intratumoral; for Tumor growth inhibition rate: last day of the test (2 wks), tumor volume vs control
Method: To investigate the effect of the complex on hormone-independent prostate cancer, a DU-145 carcinoma cell line (hormone-independent prostate carcinoma cell line), which is rarely produces prostate-specific antigen, was transplanted into nude mice and the antitumor effect of the complex was evaluated.
The DU-145 cells were cultured in 10% FBS (fetal bovine serum)-containing F-12K(Kaign's Modification of Ham's F-12 medium) in a 5% CO2 incubator at 37° C., and 2×10^5 cells/0.2 ml/head were subcutaneously transplanted into the lumbar portion of male 6-week nude mice. When the long axis of the tumor was about 1 cm long, the complex solution was intratumorally injected. The administration volume of the test drug was 0.2 ml. The mice were divided into four groups: a control group (no treatment); two administration groups administered with the complex solution at doses of 10 mCi and 20 mCi per 1 cm^3 tumor; and another administration group administered with a non-radioactive complex solution [Holmium-165 (^165Ho)-chitosan complex solution]. Two weeks after administration with the complex solution, the mice were histopathologically examined to evaluate the antitumor effect and toxicity to major organs of the complex.

[6] = listed as non-radioactive complex solution

Compound: O.O.O.O.O.O=[N+]([O-])[O-].O=[N+]([O-])[O-].O=[N+]([O-])[O-].[166Ho+3] [^166Ho, ^166Ho(NO3)3.5H2O]
- Radioactive concentration, Administration site ([1]; 30 min): 4532 ± 513.4 % ID/g
- Radioactive concentration, End region of femur ([1]; 30 min): 0.02^b % ID/g
- Radioactive concentration, Liver ([1]; 30 min): 0.02 ± 0.011 % ID/g
- Radioactive concentration, Spine ([1]; 30 min): 0.01^b % ID/g
- Radioactive concentration, Administration site ([1]; 2 hrs): 4404 ± 1806.8 % ID/g
- Radioactive concentration, End region of femur ([1]; 2 hrs): 0.11 ± 0.104 % ID/g
- Radioactive concentration, Liver ([1]; 2 hrs): 0.04 ± 0.024 % ID/g
- Radioactive concentration, Spine ([1]; 2 hrs): 0.03 ± 0.030 % ID/g
- Radioactive concentration, Spleen ([1]; 2 hrs): 0.03 ± 0.009 % ID/g
- Radioactive concentration, Administration site ([1]; 6 hrs): 2197 ± 1334.3 % ID/g
- Radioactive concentration, End region of femur ([1]; 6 hrs): 0.32 ± 0.068 % ID/g
- Radioactive concentration, Kidney ([1]; 6 hrs): 0.03 ± 0.008 % ID/g
- Radioactive concentration, Liver ([1]; 6 hrs): 0.12 ± 0.022 % ID/g
- Radioactive concentration, Spine ([1]; 6 hrs): 0.07 ± 0.010 % ID/g
- Radioactive concentration, Spleen ([1]; 6 hrs): 0.07 ± 0.006 % ID/g
- Radioactive concentration, Administration site ([1]; 24 hrs): 1067 ± 941.8 % ID/g
- Radioactive concentration, End region of femur ([1]; 24 hrs): 1.74 ± 0.424 % ID/g
- Radioactive concentration, Kidney ([1]; 24 hrs): 0.07 ± 0.025 % ID/g
- Radioactive concentration, Liver ([1]; 24 hrs): 0.18 ± 0.150 % ID/g
- Radioactive concentration, Spine ([1]; 24 hrs): 0.45 ± 0.123 % ID/g
- Radioactive concentration, Spleen ([1]; 24 hrs): 0.11 ± 0.073 % ID/g
- Radioactivity retained in the administration site, the prostate gland ([1]; listed as 166Ho(NO3)3.5H2O solution): about 30%
- Radioactivity retained in the administration site, the prostate gland ([1]; listed as radioisotope solution not containing chitosan): 30%
- Radioactive concentration in liver, spleen, kidney and end region of the femur, fold higher than in the complex solution group ([1]; after 6 and 24 hrs): 2 to 4 fold
- Radioactive concentration in the administration site, fold lower than in the complex solution group ([1]; after 6 hrs): 2 fold
- Radioactive concentration in the administration site, fold lower than in the complex solution group ([1]; after 24 hrs): 3 fold

Compound: Holmium-165 (^165Ho)-chitosan complex [Non-radioactive complex, reference compound]
- Histopathological changes in organs other than the tumor tissue (heart, lung, liver, kidney, spleen, testes, epididymis, seminal vesicle, bladder, rectum) [2]: no abnormalities in adjacent organs were found
- Tumor weight ([3]; four weeks after administration): 18.1 ± 4.37 g
- Tumor growth inhibition rate [3]: 20.4%
- Tumor growth inhibition rate [3, 6]: about 20%
- Tumor weight ([4]; 2 wks after administration): 1.93 ± 0.29 g
- Tumor weight ([4]; 4 wks after administration): 32.62 ± 2.32 g
- Change in tumor volume ([5]; last day of the test): greatly increased
- Tumor volume after injection ([5]; 1 wk): 1.24 ± 0.61 cm^3
- Tumor volume after injection ([5]; 2 wks): 5.03 ± 1.51 cm^3
- Tumor growth inhibition rate [5]: 23.1%
- Tumor growth inhibition rate [5, 6]: about 20%
